Experimental data as given in patent EP1618800A1, “Active compositions comprising lycopene, cytidin and fatty acids” (Cognis IP Management GmbH, priority 2004, dated 2006).

Legend:
Type in all cases: biochemical
[1] = DPPH Test (radical trapping, photometric at 513 nm); conditions: Batch A; sample concentration 0.3 % b.w.; average of 2 measurements
From the text: In a first series of tests, the effectiveness of the extracts against oxidative stress was investigated by chemical methods. A commercially available extract of tomatoes, CLA (Tonalin® CLA, Cognis) and their mixtures were used in concentrations of 0.3 % b.w. The first test substrate selected was diphenyl picryl hydrazyl (DPPH), a purple-red coloured stable radical which changes into its colourless leuco derivative on contact with radical trappers. The change of colour was followed photometrically at 513 nm. The test results are set out in Table 1 ("DPPH Test") where the inhibition of DPPH is shown in % absolute.

[2] = Deoxyribose oxidation by hydroxyl radicals (thiobarbituric acid, 532 nm), with or without EDTA; conditions: sample concentration 0.3 % b.w., average of 2 measurements
Procedure: In the following test, deoxyribose was used as the test substance. In the presence of hydroxyl radicals formed from H2O2 in the presence of Fe^2+ and EDTA, deoxyribose is oxidized. A pink-coloured substance is formed from the oxidized form by condensation with thiobarbituric acid. The optical density was determined at 532 nm and is dependent on the content of oxidized deoxyribose. A radical-trapping substance reacts with the hydroxyl radicals formed and reduces the formation of pink-coloured substances in this reaction mixture. In addition, the same reaction was carried out without EDTA to investigate complexing properties of the extract with Fe^2+ ions. The concentration of the samples has been again 0.3 % b.w. Table 2 Radical-trapping properties with desoxyribose in % absolute (results are averages of 2 measurements)

[3] = system: xanthine oxidase; assay: Xanthine oxidase test (superoxide radicals detected with luminol, luminol + microperoxidase or NBT); conditions: sample concentration 0.3 % b.w., average of 2 measurements; for Test with xanthan oxidase, inhibition, NBT: optical density at 490 nm
From the text: In the next test, the radical-trapping properties of the test samples were investigated using xanthine oxidase as the test system. Under oxidative stress, the enzyme converts purine bases, for example, adenine or guanine, into uric acid with intermediate formation of oxygen radicals which are spontaneously decomposed into H2O2 and oxygen by Superoxid-Dismutase (SOD). These Superoxid radicals can be detected and quantitatively determined by reaction with luminol or luminol and microperoxidase and by NBT via the luminescence and the optical density at 490 nm. The luminescence yield diminishes in the presence of substances with radical-trapping properties. The concentration of the test samples has been at 0.3 % b.w. again. The results are set out in Table 3 where the inhibition is shown in % absolute ("Luminol Test"). Table 3 Test with xanthan oxidase in % absolute (results are averages of 2 measurements)

[4] = Salicylic Acid Test (hydroxylation of salicylic acid by hydroxyl radicals, 490 nm); conditions: sample concentration 0.3 % b.w., average of 2 measurements
Procedure: In a second test, the hydroxylation of salicylic acid by hydroxyl radicals (from the reaction of hydrogen peroxide with iron(III) ions and EDTA) was investigated as a reference system. This reaction can also be photometrically investigated because the hydroxylation product is reddish in colour. The influence of the extracts on the formation of hydroxysalicylic acid was measured at an optical density of 490 nm. The results are also set out in Table 1 where inhibition is again shown in % absolute ("Salicylic Acid Test"). Table 1 Radical-trapping properties in % absolute (results are averages of 2 measurements)

Test with xanthan oxidase, inhibition, Luminol + Microperoxidase ([3]; Batch A): 5 % absolute
Test with xanthan oxidase, inhibition, Luminol + Microperoxidase ([3]; Batch B): 7 % absolute
Test with xanthan oxidase, inhibition, Luminol ([3]; Batch A): 3 % absolute
Test with xanthan oxidase, inhibition, Luminol ([3]; Batch B): 3 % absolute
Test with xanthan oxidase, inhibition, NBT ([3]; Batch A): 1 % absolute
Test with xanthan oxidase, inhibition, NBT ([3]; Batch B): 1 % absolute
Substance: conjugated linoleic acid [C2]
DPPH Test, inhibition of DPPH [1]: 18 % absolute
Radical-trapping properties with desoxyribose, Reaction with EDTA ([2]; Batch A): 1 % absolute
Radical-trapping properties with desoxyribose, Reaction with EDTA ([2]; Batch B): 0 % absolute
Radical-trapping properties with desoxyribose, Reaction without EDTA ([2]; Batch A): 0 % absolute
Radical-trapping properties with desoxyribose, Reaction without EDTA ([2]; Batch B): 0 % absolute
Salicylic Acid Test, inhibition ([4]; Batch A): 5 % absolute
Salicylic Acid Test, inhibition ([4]; Batch B): 5 % absolute
